# “Also recorded” adds a separate entry of the source.
# How the values were obtained:
# A549 [1] = experiment: MTT cytotoxicity assay; type: cell-based, human; details: two cell lines including A549, up to 7 μM, with or without TGF-β1
# Experimental: Cells (8 × 10^3 per well, 96-well) were treated as indicated, incubated with 0.5 mg/mL MTT for 4 h, solubilized in DMSO, and read at 570 nm.
# Cells were seeded at 8 × 10³ cells per well in 200 µL of medium in a 96-well plate. The next day, the medium was replaced with medium containing the test compound(s) at the desired concentration(s) and incubated for the specified duration. After the incubation, the medium was discarded and replaced with 0.5 mg/mL Thiazolyl Blue Tetrazolium Bromide in PBS. Following a 4 h incubation at 37 °C, the formazan crystals were dissolved in DMSO, and absorbance was measured at 570 nm using a SUNRISE™ microplate reader. The relative cell viability was calculated based on the optical density values.
# [2] = tested on: BLM-induced pulmonary fibrosis; experiment: RT-qPCR of lung tissue in BLM-treated mice; type: in vivo, ICR mice; details: BLM 30 mg/kg; ACF-2 10 mg/kg i.p. every 2 days or NIDB 60 mg/kg/day
# Experimental: Total RNA (AccuPrep®) was reverse-transcribed and amplified with SYBR Green chemistry on a StepOnePlusTM system; relative expression was calculated by ΔΔCt. Male ICR mice received BLM (30 mg/kg, intratracheal). […] Total RNA was extracted from both cultured cells and mouse lung tissue using the AccuPrep® Universal RNA Extraction Kit. […] RT-qPCR was performed using iTaqTM Universal SYBR® Green Supermix on a StepOnePlusTM Real-Time PCR System. […] All animal studies were approved by the Institutional Animal Care and Use Committee of Jeju National University (Approval ID: 2024-0058) and conducted in compliance with institutional guidelines. Male ICR mice (6 weeks old, average body weight 27 g) were purchased from […] (South Korea) and housed under controlled temperature (22 ± 2 °C) and humidity (0.0 ± 15.0 %) on a 12 hr light-dark cycle with free access to food and water.
# [3] = Metabolic stability in pooled human liver microsomes; type: in vitro ADME; details: with NADPH, 0–60 min, read-out: half-life (t1/2) in HLMs
# Experimental: To initiate the reaction, NADPH generating system was added to the incubation samples and further incubated for specific time points (0, 5, 15, 30, 45, and 60 min). Then, sample aliquots were taken and terminated with cold acetonitrile.
# HIF-1α–EGFP in A549 = experiment: pg-HIF-1α–EGFP fluorescence in transfected A549; type: cell-based, human; details: A549, co-treatment with TGF-β1
# Experimental: pg-HIF-1α–EGFP was introduced via jetOPTIMUS®; GFP fluorescence was quantified 48 h post-transfection.
# Transient transfection of A549 cells with pg-HIF-1α–EGFP was performed using jetOPTIMUS® according to the manufacturer’s protocol. Following 48 hr of transfection, the medium was replaced, and cells were treated with TGF-β1 at the specified concentration and duration before further analysis. Cell imaging was performed using an EVOS™ M7000 at 10×, 20×, or 40× magnification. GFP fluorescence intensity was measured using ImageJ. The mean fluorescence within the regions of interest (ROIs) was calculated after background subtraction, and values were normalized to the control condition
# CYP2C19 = target: T1, CYP2C19 (Homo sapiens, UniProt P33261); experiment: Cytochrome P450 inhibition assay in HLMs; type: in vitro ADME; details: pooled human liver microsomes, probe S-mephenytoin (4-hydroxylation), up to 50 μM
# T1 construct: tissue Xenotech H0630; host or cells: pooled human liver microsomes
# Experimental: (§1) All experiments were performed in triplicate. Phenacetin O-deethylase, coumarin hydroxylase, bupropion hydroxylase, amodiaquine N-deethylase, tolbutamide 4-hydroxylase, S-mephenytoin hydroxylase, dextromethorphan O-demethylase, chlorozoxazone 6-hydroxylase, and midazolam 1’-hydroxylase activities were determined as probe activities for CYP1A2, CYP2A6, CYP2B6, CYP2C8, CYP2C9, CYP2C19, CYP2D6, CYP2E1, and CYP3A, respectively, using cocktail incubation and tandem mass spectrometry, as described previously^2,3.
# CYP2C8 = target: T2, CYP2C8 (Homo sapiens, UniProt P10632); experiment: Cytochrome P450 inhibition assay in HLMs; type: in vitro ADME; details: pooled human liver microsomes, probe amodiaquine (N-deethylation), up to 50 μM
# T2 construct: tissue Xenotech H0630; host or cells: pooled human liver microsomes
# T2 sequence (P10632 1-490): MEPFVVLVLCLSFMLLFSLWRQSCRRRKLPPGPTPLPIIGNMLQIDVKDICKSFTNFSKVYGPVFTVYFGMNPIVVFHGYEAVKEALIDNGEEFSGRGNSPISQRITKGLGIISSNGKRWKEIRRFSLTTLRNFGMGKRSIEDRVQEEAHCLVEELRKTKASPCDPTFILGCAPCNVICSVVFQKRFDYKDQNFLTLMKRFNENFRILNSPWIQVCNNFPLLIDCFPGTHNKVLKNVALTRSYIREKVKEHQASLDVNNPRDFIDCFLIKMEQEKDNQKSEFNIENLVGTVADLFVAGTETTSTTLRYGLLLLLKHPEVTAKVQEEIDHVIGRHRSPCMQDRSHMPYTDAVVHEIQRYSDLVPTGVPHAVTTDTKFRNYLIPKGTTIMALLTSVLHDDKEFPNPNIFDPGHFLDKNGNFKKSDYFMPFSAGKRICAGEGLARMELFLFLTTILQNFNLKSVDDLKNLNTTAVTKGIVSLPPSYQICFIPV
# Experimental: as §1
# A549 [4] = experiment: Intracellular ROS staining (DHR123 microscopy, CM-H2DCFDA flow cytometry); type: cell-based, human
# Experimental: CellROX™ Deep Red or DHR123 fluorescence microscopy, and CM-H2DCFDA flow cytometry, were used to quantify intracellular ROS.
# Dihydrorhodamine (DHR)123: Cells were similarly seeded at 3 × 10⁴ cells per well in 1 mL of medium on Cell Culture Slide I. After the desired treatments and incubation times, the medium was removed, cells were washed with PBS, and 10 µM Dihydrorhodamine 123 in PBS was applied for 30 min at 37 °C. Hoechst 33342 (0.5 µg/mL) was added for the final 10 min. Cells were then washed in PBS and imaged with the EVOS™ M7000 system in the Cy2 channel.
# CM-H₂DCFDA: Cells (2 × 10⁵) were plated in 2 mL of medium per well in a 6-well plate. After treatment for the indicated times, the medium was removed, and cells were washed once with PBS. CM-H₂DCFDA (10 µM) in PBS was added for 30 min at 37 °C, followed by a 10 min equilibration in PBS. Cells were then detached with trypsin for 1 min, neutralized with FBS, pelleted by centrifugation, and resuspended in PBS. Fluorescence was measured using a CytoFLEX LX flow cytometer (excitation/emission: 485/520 nm).
# T1 sequence (P33261 whole entry): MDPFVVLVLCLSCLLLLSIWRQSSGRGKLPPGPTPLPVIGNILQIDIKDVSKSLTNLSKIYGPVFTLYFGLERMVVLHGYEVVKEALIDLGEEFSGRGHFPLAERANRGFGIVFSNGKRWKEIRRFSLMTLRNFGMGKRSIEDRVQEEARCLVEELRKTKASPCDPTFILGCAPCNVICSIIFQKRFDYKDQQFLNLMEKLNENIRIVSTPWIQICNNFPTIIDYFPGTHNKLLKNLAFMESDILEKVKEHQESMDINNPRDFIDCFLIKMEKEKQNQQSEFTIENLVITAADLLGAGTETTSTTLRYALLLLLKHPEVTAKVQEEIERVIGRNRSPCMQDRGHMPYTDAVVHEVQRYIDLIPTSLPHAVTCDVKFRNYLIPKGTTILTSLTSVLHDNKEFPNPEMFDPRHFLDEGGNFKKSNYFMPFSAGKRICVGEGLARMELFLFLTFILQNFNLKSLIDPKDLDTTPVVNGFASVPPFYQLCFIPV
compound,measurement,setting,value
COc1ccc(-c2c(-c3ccc(O)c(OC)c3)oc3cc(OC)c(OC)cc3c2=O)cc1 [ACF-2],cytotoxicity (MTT),A549 [1],does not induce cellular cytotoxicity; also recorded: did not exhibit cytotoxic effects
same,TGF-β1 (Tgfb1) expression in lung (RT-qPCR),[2],markedly reduced
same,half-life at 1 µM,[3],> 1 h
same,TGF-β1–induced HIF-1α–EGFP GFP fluorescence intensity,HIF-1α–EGFP in A549,significantly attenuated the TGF-β1–induced increase in GFP fluorescence intensity
same,IC50,CYP2C19,8.05 µM
same,IC50,CYP2C8,6.24 µM
same,TGF-β1-induced ROS (DCFDA flow cytometry),"A549 [4]; A549, ACF-2 7 μM, TGF-β1 6 h",effectively suppressed TGF-β1-induced ROS elevation
same,TGF-β1-induced ROS (DHR123),"A549 [4]; A549, TGF-β1 6 h, NAC 10 mM as comparator",reduced TGF-β1-induced ROS accumulation even more effectively than NAC
